Test results taken from publication PMC7648750, “In vitro and in vivo BNCT investigations using a carborane containing sulfonamide targeting CAIX epitopes on malignant pleural mesothelioma and breast cancer cells” (Scientific Reports, 2020).

Columns and labels:
AB22 cells [1] = assay: MTT cell vitality assay; format: cell-based, mouse; conditions: normoxia
Experimental: The MTT assay is based on the reduction in the mitochondria of metabolically active cells by succinate dehydrogenase obtaining a precipitation of purple formazan crystal. The assay was carried out using the same protocol reported by Azzi et al[42]. Briefly, AB22, ZL34 and MCF7 cells were seeded at a density of 7 × 10^3, 5 × 10^3 and 1 × 10^4 cells per well, respectively, in a 96-well microtiter plate. After 24 h at 37 °C and 5% CO2, they were incubated with increasing concentration of CA-SF or AZ for 24 h in a condition of normoxia at 37 °C and 5% CO2 by adding stock solutions in dimethyl sulfoxide (DMSO). In all the conditions the concentration of DMSO during the cell incubation was maintained under 0.25% (v/v) in cell medium. After the incubation, the medium was removed and each well was incubated with thiazolyl blue tetrazolium bromide (Sigma) dissolved in the medium at a concentration of 0.45 mg/mL for 4 h at 37 °C and 5% CO2. Then, after medium elimination, 150 µL of DMSO were added into each well to solubilise the formazan salt crystals produced by the metabolism of live cells and the microplate was incubated at room temperature (RT) for 30 min. Finally, absorbance was measured at 570 nm using an iMark microplate reader (Biorad). Cell vitality was reported as the percentage of […] cells observed in the treated samples relative to that observed in the non-treated control cells.

MCF7 cells [2] = assay: Cell uptake of boron (ICP-MS); format: cell-based, human; conditions: MCF7, 72 µM CA-SF in culture medium, 24 h, 37 °C
Experimental: (§1) For the in vitro uptake experiments, 6 × 10^5 MCF7, 4.5 × 10^5 ZL34 and 2 × 10^5 AB22 were seeded in 6 cm of diameter dishes. After 24 h for MCF7 and ZL34 and after 72 h for AB22, the cells were incubated for 24 h with increasing concentration of CA-SF. All the incubations were performed in condition of normoxia at 37 °C, 5% CO2. At the end of the incubation, cells were washed three times with 3 ml ice-cold PBS and detached with 0.05% trypsin and 0.02% EDTA. Finally, all cell samples were transferred in falcon tubes and sonicated at 30% of power for 30 s in ice. The boron content of each cell sample lysates was determined by ICP-MS technique (see below). The milligrams of proteins, proportional to the number of cells, of each cell sample lysate, was evaluated by the Bradford assay (Biorad) using bovine serum albumin as a standard.
(§2) Boron content from cell samples, mice organs, plasma and tumours were determined using inductively coupled plasma mass spectrometry (ICP-MS) (Element-2; Thermo-Finnigan, Rodano (MI), Italy).
(§3) Sample digestion was performed using a high performance Microwave Digestion System (ETHOS UP Milestone, Bergamo, Italy) after the addition of concentrated HNO3 (70%) to cell lysates (1:1), in a final volume of 0.4 mL. […] The amounts of boron µg /g tissue were thus calculated considering that 1 g of tissue contains 1 × 10^9 cells.

ZL34 cells [3] = assay: Cell uptake of boron (ICP-MS); format: cell-based, human; conditions: ZL34, 187.5 µM CA-SF in culture medium, 24 h, 37 °C
Experimental: as §1, §2, §3

AB22 cells [4] = assay: Cell uptake of boron (ICP-MS); format: cell-based, mouse; conditions: AB22, 130 µM CA-SF in culture medium, 24 h, 37 °C
Experimental: as §1, §2, §3

MCF7 cells [5] = assay: BNCT in vitro: viable cells 24 h after neutron irradiation (trypan blue); format: cell-based, human; conditions: MCF7, 72 µM 24 h, thermal neutrons 15 min 30 kW, 24 h after irradiation
Experimental: (§4) 75 flasks of MCF7 (4 flasks), ZL34 (4 flasks) and AB22 (4 flasks) were seeded at a density of 1.8 × 10^6 cells, 1.2 × 10^6 cells and 5.5 × 10^5 cells, respectively. 24 h later for MCF7 and ZL34 and 72 h later for AB22, 2 flasks of each cell lines were incubated for 24 h in the presence of 72 µM, 187.5 µM and 130 µM of CA-SF, respectively. After the incubation, cells were washed with PBS and their medium was renewed. Two flasks of MCF7, ZL34 and AB22 cells incubated with CA-SF and two flasks containing non-treated control cells were irradiated for 15′ at 30 kW reactor power in the thermal column of the TRIGA Mark II reactor at the University of Pavia, Italy. At the end of the irradiation, the medium was removed, it was replaced with fresh medium and flasks were placed at 37 °C in a humidified atmosphere of 5% CO2.
(§5) The proliferation assay was carried out following the same procedure reported in reference 32. The day after irradiation cells were detached with 0.05% trypsin and 0.02% EDTA and the trypan blue exclusion test of cell viability was performed. Cell viability was reported as percentage of cells observed in treated a/o irradiated samples relative to that observed in control cells.

ZL34 cells [6] = assay: as above; format: cell-based, human; conditions: ZL34, 187.5 µM 24 h, thermal neutrons 15 min 30 kW, 24 h after irradiation
Experimental: as §4, §5

AB22 cells [7] = assay: as above; format: cell-based, mouse; conditions: AB22, 130 µM 24 h, thermal neutrons 15 min 30 kW, 24 h after irradiation
Experimental: as §4, §5

AB22 cells [8] = assay: Proliferation assay of cells surviving irradiation; format: cell-based, mouse; conditions: AB22, 130 µM CA-SF before neutron irradiation
Experimental: as §4, with “At the end of the irradiation, the medium was removed, it was replaced with fresh medium and flasks were placed at 37 °C in a humidified atmosphere of 5% CO2.” left out
Then, around 7 × 10^5 MCF7, 3.5 × 10^5 ZL34 and 1 × 10^5 AB22 cells from each differently treated flask were seeded in 10 cm diameter culture dishes. […] Then, cells were sonicated for 30 s at 30% power in ice and the total cell protein concentration (that is proportional to the number of cells) from cell lysates was determined by the Bradford method, using bovine serum albumin as a standard. The Cell Growth Rate was calculated as follows: Number of cellsti-Number of cellst0/Number of cellst0×100 for which Number of cells (ti) is the number of cells measured at the various time intervals and the number of cells (t0) is the number of cells at the starting point (t = 0) of the proliferation assay.

## 1-Sulfonamidomethyl-o-carborane [CA-SF]
AB22 cells [1]; AB22, 130 µM CA-SF, 24 h, 37 °C
  cell vitality measured by MTT: about 80%
AB22 cells [1]; AB22, 24 h, Fig. 3
  percentage of viable cells with increasing concentration (MTT): steadily decreases
MCF7 cells [2]
  boron loaded into the target cells: 60 µg/g
ZL34 cells [3]
  boron loaded into the target cells: 90 µg/g
AB22 cells [4]
  boron loaded into the target cells: 160 µg/g
MCF7 cells [5]
  viability of CA-SF treated and irradiated cells vs CA-SF treated cells: significantly reduced
ZL34 cells [6]
  viability of CA-SF treated and irradiated cells vs CA-SF treated cells: comparable
AB22 cells [7]
  viability of CA-SF treated and irradiated cells vs CA-SF treated cells: significantly reduced
AB22 cells [8]
  proliferation rate of cells surviving to irradiation: marked inhibition of proliferation
